From US9199975B2, “Biaryl imidazole derivatives for regulating CYP17” (Asana Biosciences, LLC, priority 2011, dated 2015) come the findings set out here.

For this experiment, the target named is T1, human CYP17 (Homo sapiens, UniProt P05093).
T1 sequence (P05093 1-508): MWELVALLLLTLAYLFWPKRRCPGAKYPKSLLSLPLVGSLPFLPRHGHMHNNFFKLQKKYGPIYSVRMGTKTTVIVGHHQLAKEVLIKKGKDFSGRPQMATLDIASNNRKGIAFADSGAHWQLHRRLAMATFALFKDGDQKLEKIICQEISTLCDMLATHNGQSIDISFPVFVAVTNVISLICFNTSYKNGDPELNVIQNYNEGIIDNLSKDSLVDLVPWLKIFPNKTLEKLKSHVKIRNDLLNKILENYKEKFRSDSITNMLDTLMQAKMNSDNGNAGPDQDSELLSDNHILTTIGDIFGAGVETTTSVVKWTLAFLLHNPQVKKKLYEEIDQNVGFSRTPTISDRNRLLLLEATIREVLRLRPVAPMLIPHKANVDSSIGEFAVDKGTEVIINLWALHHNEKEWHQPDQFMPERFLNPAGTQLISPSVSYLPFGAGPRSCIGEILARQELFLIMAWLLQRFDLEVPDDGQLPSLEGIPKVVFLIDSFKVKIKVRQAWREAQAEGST
In words: Cell-based human CYP17 inhibition assay, H295R adrenocortical carcinoma cells. Also on record: H295R Adrenocortical carcinoma cells [NCI-H295A, ATCC Number CRL-2128, American Type Culture Collection; host or cells: H295R adrenocortical carcinoma cells. The note with it: 16 hours at 37° C., read-out: CYP17 (human H295R adrenal cells). The procedure: Cell-Based Human CYP17 Inhibition Assay
A. Materials • 1. H295R Adrenocortical Carcinoma Cells and Growth Media: The media for the H295R Adrenocortical carcinoma cells [NCI-H295A, ATCC Number CRL-2128, American Type Culture Collection, Manassas, Va., US] (500 mL) was a DMEM:F12 Mix 1:1 with 5% […] BD Nu Serum; 1% (5 mL) ITS+Premix [BD Biosciences] and 1% Penstrep. • 2. LNCap-CYP17 Cells and Growth Media: Full length hCYP17a1 gene (NCBI Reference Sequence: NM_000102.3) was cloned in pCDNA3.1(+) vector between HindIII and XhoI site. The pCDNA3.1(+) vector contains the Neomycin resistance gene and was used for selection of stable cell line. The hCYP17a1 containing pCDNA3.1(+) was transfected into LNCap cells to create the LNCap-CYP17 cell line. The media for the LNCaP-CYP17 cells was RPMI 1640, 10% FBS, 1% PenStrep, Geneticin 400 μg/mL.
The H295R cells or LNCaP-hCYP17 cells were subcultured and 30,000 cells per well were seeded in a poly-d lysine plate and incubated overnight at 37° C. The next day the media was removed and 200 µL of fresh media with ^3H3-17α-hydroxy-pregnenolone (1:1000) was added. 50 μL of serially diluted compounds from a 5× plate (5 times the final desired concentration) was added. The working concentration range for active, new compounds started from a high concentration of […] with 3-fold serial dilutions generating up to 10 concentrations. The serial dilution in the 100× plate (in DMSO) and the stamping of a 5× plate (in media) from the 100× plate were carried out using a TECAN liquid handling device.
The plates were incubated overnight (16 hours) at 37° C. After 16 hours, the media was removed (approximately 220 μL) and an equal amount of chloroform was added, mixed and incubated for 30 minutes at 4 degrees. The plate was centrifuged at 4000 rpm for 15 minutes at 4° C., following which the top aqueous layer was carefully removed and added into a new deep well plate. An equal volume of activated 5% charcoal was added, mixed and incubated for 30 minutes at 4° C. The plate was then centrifuged at 4000 rpm for 15 minutes at 4° C. and the top layer carefully separated, avoiding any charcoal contamination, and placed in a white, clear bottom plate (plate cat #3610, Corning Life Sciences). An equal volume of Microscint™ 40 was added and mixed well. Following the incubation for 30 minutes, readings for the radiotracer were taken using a Microbeta® trilux.
For the compound `CCC(c1ccc(-c2ccc(COCOC)cc2)cn1)n1ccnc1` (centres unmarked) [Example 11, 2-(1-(1H-imidazol-1-yl)propyl)-5-(4-((methoxymethoxy)methyl)-phenyl)pyridine], the IC50 lay in the range of 50 to 200 nM.
Turning to `CCC(c1ccc(-c2ccc(O)cc2)o1)n1ccnc1` (centres unmarked) [Example 30, 4-[5-(1-Imidazol-1-yl-propyl)-furan-2-yl]-phenol], the IC50 was under 50 nM.
As for `CC(c1ccc(-c2ccccc2F)cn1)n1ccnc1` (centres unmarked) [Example 40, 5-(2-Fluoro-phenyl)-2-(1-imidazol-1-yl-ethyl)-pyridine], the IC50 was 50 to 200 nM.
In the case of `COc1ccc(-c2ccc(C(C)n3ccnc3)nc2)cc1` (centres unmarked) [Example 15, 2-(1-(1H-imidazol-1-yl)ethyl)-5-(4-methoxyphenyl)pyridine], the IC50 fell in the range of 50 to 200 nM.
With `CC(c1ccc(-c2ccc(N)cc2)cn1)n1ccnc1` (centres unmarked) [Example 14, 4-(6-(1-(1H-imidazol-1-yl)ethyl)pyridin-3-yl)aniline], the IC50 is 201 to 10000 nM.
The value for `CCC(c1cnc(-c2ccc(OC)nc2)s1)n1ccnc1` (centres unmarked) [Example 51, 5-[5-(1-Imidazol-1-yl-propyl)-thiazol-2-yl]-2-methoxy-pyridine] was 50 to 200 nM; that for `CCC(c1ccc(-c2ccccc2O)cn1)n1ccnc1` (centres unmarked) [Example 37, 2-[6-(1-Imidazol-1-yl-propyl)-pyridin-3-yl]-phenol] was under 50 nM.
On to `COc1ccc(-c2ccc(C(C)(C)n3ccnc3)s2)cc1` [Example 24, 1-(2-(5-(4-methoxyphenyl)-thiophen-2-yl)-propan-2-yl)-1H-imidazole], for which the IC50 is under 50 nM.
Next, `COc1ccc(-c2cccc(C(C)n3ccnc3)n2)cc1` (centres unmarked) [Example 42, 2-(1-Imidazol-1-yl-ethyl)-6-(4-methoxy-phenyl)-pyridine]: 50 to 200 nM; `CCC(c1ccc(-c2ccccc2C#N)cn1)n1ccnc1` (centres unmarked) [Example 18, 2-(6-(1-(1H-imidazol-1-yl)propyl)pyridin-3-yl)benzonitrile]: 201 to 10000 nM.
Regarding `CCC(c1cnc(-c2ccc(=O)[nH]c2)s1)n1ccnc1` (centres unmarked) [Example 59, 5-[5-(1-Imidazol-1-yl-propyl)-thiazol-2-yl]-1H-pyridin-2-one], the IC50 is 201 to 10000 nM.
The value for `CC(c1ccc(-c2ccc(O)cc2)s1)n1ccnc1` (centres unmarked) [Example 49, 4-[5-(1-Imidazol-1-yl-ethyl)-thiophen-2-yl]-phenol] was under 50 nM; that for `CC(c1ccc(-c2ccc(F)cc2)nc1)n1ccnc1` (centres unmarked) [Example 54, 2-(4-Fluoro-phenyl)-5-(1-imidazol-1-yl-ethyl)-pyridine] was 201 to 10000 nM.
Take `CCC(c1ccc(-c2ccc(C#N)cc2)cn1)n1ccnc1` (centres unmarked) [Example 17, 4-[6-(1-Imidazol-1-yl-propyl)-pyridin-3-yl]-benzonitrile]: the IC50 fell in the range of 50 to 200 nM.
Consider `CC(c1ccc(-c2ccc(F)cc2)cn1)n1ccnc1` (centres unmarked) [Example 12, 2-(1-(1H-imidazol-1-yl)ethyl)-5-(4-fluorophenyl)pyridine], for which the IC50 is under 50 nM.
Next, `CCC(c1ccc(-c2ccc(O)cc2)s1)n1ccnc1` (centres unmarked) [Example 4, 4-(5-(1-(1H-imidazol-1-yl)propyl)thiophen-2-yl)phenol]: under 50 nM; `CC(c1cnc(-c2ccc(=O)[nH]c2)s1)n1ccnc1` (centres unmarked) [Example 63, 5-[5-(1-Imidazol-1-yl-ethyl)-thiazol-2-yl]-1H-pyridin-2-one]: 201 to 10000 nM.
The value for `CC(c1ccc(-c2ccc(O)cc2)cn1)n1ccnc1` (centres unmarked) [Example 16, 4-(6-(1-(1H-imidazol-1-yl)ethyl)pyridin-3-yl)phenol] was 50 to 200 nM; that for `CCC(c1cnc(-c2ccc(OC)cc2)s1)n1ccnc1` (centres unmarked) [Example 35, 5-(1-Imidazol-1-yl-propyl)-2-(4-methoxy-phenyl)-thiazole] was 50 to 200 nM; that for `CC(c1cnc(-c2ccc(C#N)cc2)s1)n1ccnc1` (centres unmarked) [Example 22, 4-(5-(1-(1H-imidazol-1-yl)ethyl)thiazol-2-yl)benzonitrile] was 50 to 200 nM.
As to `CCC(c1cnc(-c2ccc(F)cc2)s1)n1ccnc1` (centres unmarked) [Example 33, 2-(4-Fluoro-phenyl)-5-(1-imidazol-1-yl-propyl)-thiazole], the IC50 was under 50 nM.
Next, `CCC(c1ccc(-c2ccc(OC)cc2)cn1)n1ccnc1` (centres unmarked) [Example 47, 2-(1-Imidazol-1-yl-propyl)-5-(4-methoxy-phenyl)-pyridine]: 50 to 200 nM; `CCC(c1ccc(-c2ccc(F)cc2)cn1)n1ccnc1` (centres unmarked) [Example 29, 5-(4-Fluoro-phenyl)-2-(1-imidazol-1-yl-propyl)-pyridine]: under 50 nM; `CC(c1ccc(-c2ccc(=O)n(C)c2)s1)n1ccnc1` (centres unmarked) [Example 20, 5-(5-(1-(1H-imidazol-1-yl)ethyl)thiophen-2-yl)-1-methylpyridin-2(1H)-one]: under 50 nM.
Consider `CCC(c1cnc(-c2cn[nH]c2)s1)n1ccnc1` (centres unmarked) [Example 44, 5-(1-Imidazol-1-yl-propyl)-2-(1H-pyrazol-4-yl)-thiazole], for which the IC50 lay in the range of 50 to 200 nM.
As for `CCC(c1ccc(-c2ccccc2OC)cn1)n1ccnc1` (centres unmarked) [Example 56, 2-(1-Imidazol-1-yl-propyl)-5-(2-methoxy-phenyl)-pyridine], the IC50 lay within 50 to 200 nM.
The value for `COc1ccc(-c2ccc(C(CC(C)C)n3ccnc3)s2)cc1` (centres unmarked) [Example 39, 1-{1-[5-(4-Methoxy-phenyl)-thiophen-2-yl]-3-methyl-butyl}-1H-imidazole] was under 50 nM; that for `CC(c1ccc(-c2ccoc2)cn1)n1ccnc1` (centres unmarked) [Example 13, 2-(1-(1H-imidazol-1-yl)ethyl)-5-(furan-3-yl)pyridine] was 201 to 10000 nM.
As for `CCOC(=O)c1ccc(-c2ccc(C(CC)n3ccnc3)nc2)cc1` (centres unmarked) [Example 5, Ethyl 4-(6-(1-(1H-imidazol-1-yl)propyl)pyridin-3-yl)benzoate], the IC50 is 50 to 200 nM.
